Data reported in patent US4138554A, “7-[D-α-(4-Hydroxy-1,5-naphthyridine-3-carboxamido)-α-phenyl (and p-hydroxyphenyl)acetamido]-3-carbamoyloxymethyl-3-cephem-4-carboxylic acids” (priority 1977, dated 1979).
Converted amounts (≈) assume the structure as drawn. Read-outs that look alike come from different tables or passages of the source.

How the values were obtained:
[1] = test system: Pseudomonas (6 strains); assay: Mean % relative activity (MIC) vs sulbenicillin, Pseudomonas (6 strains); type: cell-based; conditions: for Mean % Relative Activity (Sulbenicillin = 100%): Pseudomonas (6 strains), from geometric means of MICs in Table 1; for Mean % Relative Activity (SPBC = 100%): P. aerug. (6 strains)
Description: (§1) Minimum inhibitory concentrations (MIC) of BB-S520 were determined by serial two-fold agar dilution method using Steers' apparatus on Meuller-Hinton agar plate against 31 test organisms for the primary screening and also against 61 strains of Pseudomonas aeruginosa for the secondary evaluation. The results are shown in Table 1 and Table 2 along with those of BB-S514 and sulbenicillin.
(§2) Minimum inhibitory concentrations (MIC) of cephalosporins in the present study were determined by serial two-fold agar dilution method using Steers' apparatus on Mueller-Hinton agar plate against 31 test organisms for the primary screening and also against 61 strains of Pseudomonas aeruginosa for the secondary evaluation.

[2] = test system: E. coli; assay: MIC by serial two-fold agar dilution (Mueller-Hinton agar), E. coli; type: cell-based; conditions: Escherichia coli
Description: as §1, §2

[3] = test system: P. morganii; assay: MIC by serial two-fold agar dilution (Mueller-Hinton agar), P. morganii; type: cell-based
Description: as §1, §2

[4] = test system: S. aureus; assay: MIC by serial two-fold agar dilution (Mueller-Hinton agar), S. aureus; type: cell-based; conditions: Staphylococcus aureus
Description: as §1, §2

[5] = test system: Ps. aeruginosa A9843; assay: Median curative dose in mice, infection with Ps. aeruginosa; type: in vivo; conditions: for ED50: Pseudomonas aeruginosa, A9843, sc
From the text: Median Curative Dose in Mgm./Kg.
Upon Subcutaneous Injection in Mice

[6] = Mouse blood levels after subcutaneous injection; type: in vivo; conditions: sc
From the text: |Mouse Blood Levels | Blood Levels in Mcg./Ml. at | Indicated Hours After Subcu- |Dose in taneous Injection

[7] = test system: Pseudomonas sp.; assay: MIC by serial two-fold agar dilution (Mueller-Hinton agar), Pseudomonas sp.; type: cell-based; conditions: Pseudomonas sp. A20358, Table 6
Description: as §2

[8] = E. coli Juhl, Table 1, read-out: MIC
[9] = E. coli NIHJ, Table 1, read-out: MIC
[10] = E. coli, unnamed strain (3rd E. coli line), Table 1
[11] = E. coli, unnamed strain (4th E. coli line), Table 1, read-out: MIC
[12] = E. coli, unnamed strain (5th E. coli line), Table 1, read-out: MIC
[13] = E. coli, unnamed strain (6th E. coli line), Table 1, read-out: MIC
[14] = E. coli, unnamed strain (7th E. coli line), Table 1, read-out: MIC
[15] = E. coli, unnamed strain (8th E. coli line), Table 1, read-out: MIC
[16] = E. coli, unnamed strain (9th E. coli line), Table 1, read-out: MIC
[17] = Morganella morganii, P. morganii, Table 1, read-out: MIC
[18] = S. aureus BX-1633, Table 1, read-out: MIC
[19] = S. aureus Smith (1st line), Table 1, read-out: MIC
[20] = S. aureus Smith (2nd line), Table 1, read-out: MIC
[21] = S. aureus, unnamed strain (4th S. aureus line), Table 1, read-out: MIC
[22] = S. aureus, unnamed strain (5th S. aureus line), Table 1, read-out: MIC
[23] = S. aureus, unnamed strain (6th S. aureus line), Table 1, read-out: MIC
[24] = E. coli A9435, Table 6, read-out: MIC
[25] = E. coli A9844, Table 6, read-out: MIC
[26] = E. coli A10664, Table 6, read-out: MIC
[27] = E. coli A20366, Table 6, read-out: MIC
[28] = E. coli A20520, Table 6, read-out: MIC
[29] = E. coli A20732, Table 6, read-out: MIC
[30] = E. coli A20898, Table 6, read-out: MIC
[31] = E. coli Juhl A15119, Table 6, read-out: MIC
[32] = E. coli NIHJ, Table 6, read-out: MIC
[33] = mice, P. aerug. A9843 infection, Table 5, read-out: PD50
[34] = subcutaneous injection in mice, Ps. aeruginosa, Table 4, read-out: Median Curative Dose (PD50)
[35] = S. aureus BX-1633 A9606, Table 6, read-out: MIC
[36] = S. aureus Smith A9537, Table 6, read-out: MIC
[37] = S. aureus Smith A15907, Table 6
[38] = S. aureus Smith A20239, Table 6, read-out: MIC
[39] = S. aureus Smith A20240, Table 6, read-out: MIC
[40] = S. aureus Smith A20701, Table 6, read-out: MIC

Structure (SMILES): CC(=O)OCC1=C(C(=O)O)N2C(=O)C(NC(=O)C(NC(=O)c3cnc4cccnc4c3O)c3ccccc3)C2SC1 (stereo not shown) [BB-S514]
- Mean % Relative Activity (Sulbenicillin = 100%) [1]: 283%
- MIC [2, 8]: 12.5 µg/mL (≈ 21.6 µM)
- MIC [2, 9]: 0.1 µg/mL (≈ 0.173 µM)
- MIC [2, 10]: 0.4 µg/mL (≈ 0.693 µM)
- MIC [2, 11]: 0.4 µg/mL (≈ 0.693 µM)
- MIC [2, 12]: > 100 µg/mL
- MIC [2, 13]: 6.3 µg/mL (≈ 10.9 µM)
- MIC [2, 14]: > 100 µg/mL
- MIC [2, 15]: 12.5 µg/mL (≈ 21.6 µM)
- MIC [2, 16]: 0.8 µg/mL (≈ 1.39 µM)
- MIC [3, 17]: > 100 µg/mL
- MIC [4, 18]: 3.1 µg/mL (≈ 5.37 µM)
- MIC [4, 19]: 3.1 µg/mL (≈ 5.37 µM)
- MIC [4, 20]: 6.3 µg/mL (≈ 10.9 µM)
- MIC [4, 21]: 25 µg/mL (≈ 43.3 µM)
- MIC [4, 22]: 6.3 µg/mL (≈ 10.9 µM)
- MIC [4, 23]: > 100 µg/mL

Structure (SMILES): CC1(C)S[C@@H]2[C@H](NC(=O)C(c3ccccc3)S(=O)(=O)O)C(=O)N2[C@H]1C(=O)O (stereo partly shown) [Sulbenicillin, sulbenicillin]
- MIC [2, 24]: 12.5 µg/mL (≈ 30.2 µM)
- MIC [2, 25]: 0.8 µg/mL (≈ 1.93 µM)
- MIC [2, 26]: 1.6 µg/mL (≈ 3.86 µM)
- MIC [2, 27]: > 100 µg/mL
- MIC [2, 28]: 6.3 µg/mL (≈ 15.2 µM)
- MIC [2, 29]: 100 µg/mL (≈ 241 µM)
- MIC [2, 30]: > 100 µg/mL
- MIC [2, 31]: 3.1 µg/mL (≈ 7.48 µM)
- MIC [2, 8]: 1.6 µg/mL (≈ 3.86 µM)
- MIC [2, 9]: 0.8 µg/mL (≈ 1.93 µM)
- MIC [2, 32]: 0.8 µg/mL (≈ 1.93 µM)
- MIC [2, 10]: 0.8 µg/mL (≈ 1.93 µM)
- MIC [2, 11]: 1.6 µg/mL (≈ 3.86 µM)
- MIC [2, 12]: > 100 µg/mL
- MIC [2, 13]: 6.3 µg/mL (≈ 15.2 µM)
- MIC [2, 14]: > 100 µg/mL
- MIC [2, 15]: > 100 µg/mL
- MIC [2, 16]: 6.3 µg/mL (≈ 15.2 µM)
- MIC [3, 17]: > 100 µg/mL
- MIC ([3]; P. morganii A9553, Table 6): > 100 µg/mL
- ED50 [5, 33]: 140 mg/kg
- ED50 [5, 34]: 85 mg/kg
- PD50 ([5]; mice, P. aerug. A9843 infection, Table 5): 130 mg/kg
- concentration at 0.25 h ([6]; blood, 20 mg/kg, subcutaneous, 20 Mgm./Kg., 0.25 hours, read-out: Blood Levels): 9800 ng/mL
- concentration at 0.5 h ([6]; blood, 20 mg/kg, subcutaneous, 20 Mgm./Kg., 0.5 hours, read-out: Blood Levels): 7500 ng/mL
- concentration at 1 h ([6]; blood, 20 mg/kg, subcutaneous, 20 Mgm./Kg., 1.0 hours, read-out: Blood Levels): 1200 ng/mL
- concentration at 0.25 h ([6]; blood, 40 mg/kg, subcutaneous, 40 Mgm./Kg., 0.25 hours, read-out: Blood Levels): 22000 ng/mL
- concentration at 0.5 h ([6]; blood, 40 mg/kg, subcutaneous, 40 Mgm./Kg., 0.5 hours, read-out: Blood Levels): 14000 ng/mL
- concentration at 1 h ([6]; blood, 40 mg/kg, subcutaneous, 40 Mgm./Kg., 1.0 hours, read-out: Blood Levels): 5000 ng/mL
- concentration at 2 h ([6]; blood, 40 mg/kg, subcutaneous, 40 Mgm./Kg., 2.0 hours, read-out: Blood Levels): < 1000 ng/mL
- MIC [7]: 3.1 µg/mL (≈ 7.48 µM)
- MIC [4, 18]: 3.1 µg/mL (≈ 7.48 µM)
- MIC [4, 35]: 3.1 µg/mL (≈ 7.48 µM)
- MIC [4, 19]: 1.6 µg/mL (≈ 3.86 µM)
- MIC [4, 20]: 6.3 µg/mL (≈ 15.2 µM)
- MIC [4, 36]: 3.1 µg/mL (≈ 7.48 µM)
- MIC [4, 37]: 12.5 µg/mL (≈ 30.2 µM)
- MIC [4, 38]: 6.3 µg/mL (≈ 15.2 µM)
- MIC [4, 39]: 6.3 µg/mL (≈ 15.2 µM)
- MIC [4, 40]: 50 µg/mL (≈ 121 µM)
- MIC [4, 21]: 25 µg/mL (≈ 60.3 µM)
- MIC [4, 22]: 3.1 µg/mL (≈ 7.48 µM)
- MIC [4, 23]: 50 µg/mL (≈ 121 µM)

Structure (SMILES): NC(=O)OCC1=C(C(=O)O)N2C(=O)C(NC(=O)[C@H](NC(=O)c3cnc4cccnc4c3O)c3ccccc3)[C@H]2SC1 (stereo partly drawn) [BB-S520, Sodium 7-[D-α-(4-hydroxy-1,5-naphthyridine-3-carboxamido)-α-phenylacetamido]-3-carbamoyloxymethyl-3-cephem-4-carboxylate]
- Mean % Relative Activity (SPBC = 100%) ([1]; lot 1, Table 5): 635%
- Mean % Relative Activity (SPBC = 100%) ([1]; lot 2, Table 5): 712%
- Mean % Relative Activity (Sulbenicillin = 100%) [1]: 635%
- MIC [2, 8]: 1.6 µg/mL
- MIC [2, 9]: 0.05 µg/mL
- MIC [2, 11]: 0.8 µg/mL
- MIC [2, 12]: 100 µg/mL
- MIC [2, 13]: 3.1 µg/mL
- MIC [2, 14]: 100 µg/mL
- MIC [2, 15]: 3.1 µg/mL
- MIC [2, 16]: 0.4 µg/mL
- MIC [3, 17]: > 100 µg/mL
- ED50 [5, 33]: 37 mg/kg
- ED50 [5, 34]: 37 mg/kg
- concentration at 0.25 h ([6]; in vivo, 20 mg/kg): 13000 ng/mL
- concentration at 0.5 h ([6]; in vivo, 20 mg/kg): 9000 ng/mL
- concentration at 1 h ([6]; in vivo, 20 mg/kg): 3700 ng/mL
- concentration at 0.25 h ([6]; in vivo, 40 mg/kg): 25000 ng/mL
- concentration at 0.5 h ([6]; in vivo, 40 mg/kg): 20000 ng/mL
- concentration at 1 h ([6]; in vivo, 40 mg/kg): 7000 ng/mL
- concentration at 2 h ([6]; in vivo, 40 mg/kg): 1000 ng/mL
- MIC [4, 18]: 0.8 µg/mL
- MIC [4, 19]: 0.8 µg/mL
- MIC [4, 20]: 1.6 µg/mL
- MIC [4, 21]: 25 µg/mL
- MIC [4, 22]: 1.6 µg/mL
- MIC [4, 23]: 50 µg/mL

Structure (SMILES): NC(=O)OCC1=C(C(=O)O)N2C(=O)C(NC(=O)[C@H](NC(=O)c3cnc4cccnc4c3O)c3ccc(O)cc3)C2SC1 (single isomer, unassigned) [BB-S530, Sodium 7-[D-(-)-α-(4-hydroxy-1,5-naphthyridine-3-carboxamido)-α-(p-hydroxyphenyl)acetamido]-3-carbamoyloxymethyl-3-cephem-4-carboxylate]
- Mean % Relative Activity (SPBC = 100%) ([1]; Table 5): 1425%
- MIC [2, 24]: 3.1 µg/mL
- MIC [2, 25]: 0.4 µg/mL
- MIC [2, 26]: 0.2 µg/mL
- MIC [2, 27]: > 100 µg/mL
- MIC [2, 28]: 3.1 µg/mL
- MIC [2, 29]: 3.1 µg/mL
- MIC [2, 30]: 100 µg/mL
- MIC [2, 31]: 1.6 µg/mL
- MIC [2, 32]: 1.6 µg/mL
- MIC ([3]; Morganella morganii, P. morganii A9553, Table 6, read-out: MIC): > 100 µg/mL
- ED50 [5, 33]: 9.3 mg/kg
- MIC [7]: 0.4 µg/mL
- MIC [4, 35]: 3.1 µg/mL
- MIC [4, 36]: 1.6 µg/mL
- MIC [4, 37]: 25 µg/mL
- MIC [4, 38]: 3.1 µg/mL
- MIC [4, 39]: 3.1 µg/mL
- MIC [4, 40]: 25 µg/mL
